# In patent US20110281747A1, “BIOMARKERS FOR PREDICTING RAPID RESPONSE TO HCV TREATMENT” (ROCHE MOLECULAR SYSTEMS, INC., priority 2009, published 2011):
# How the values were obtained:
# [1] = Phase II clinical trial of RO4588161: premature withdrawal for safety reasons; type: in vivo, human
# From the text: This was a phase 2A, multi-center, randomized, double-blinded (RO4588161 and ribavirin were double-blinded and Pegasys was open labeled), active-controlled, with a parallel-group study which is ongoing. A screening period (time from the first screening assessment to the first administration of test drug) of 35 days preceded the treatment portion of the trial (FIG. 1). The HCV genotype and HCV RNA titer of each patient was confirmed during the screening period and only treatment-naïve patients with HCV genotype-1 and HCV RNA titer ≧50,000 IU/mL were eligible for enrollment.
# One hundred and seven male and female patients between 18 and 66 years of age were enrolled into the study. Patients were randomized into four treatment groups: • Group A/Dual 1500 [RO4588161 1500 mg oral, twice daily+Pegasys 180 μg subcutaneous, once weekly] for 4 weeks—21 patients, • Group B/Dual 3000 [R04588161 3000 mg oral, twice daily+Pegasys 180 μg subcutaneous, once weekly] for 4 weeks—34 patients, • Group C/Triple 1500 [R04588161 1500 mg oral, twice daily+Pegasys 180 μg subcutaneous, once weekly+ribavirin 1000 mg (<75 kg) or 1200 mg (≧75 kg) oral daily] for 4 weeks—31 patients or • Group D/standard of care (SOC) [Pegasys 180 μg subcutaneous, once weekly+ribavirin 1000 mg (<75 kg) or 1200 mg (≧75 kg) oral daily] for 4 weeks—21 patients […]
# [2] = in vivo; cited from earlier work
# [3] = test system: HCV; conditions: monotherapy; cited from earlier work
smiles,measurement,setting,value
"CC(C)C(=O)OC[C@@]1(N=[N+]=[N-])O[C@@H](n2ccc(N)nc2=O)[C@H](OC(=O)C(C)C)[C@@H]1OC(=O)C(C)C [RO4588161, Isobutyric acid (2R,3S,4R,5R)-5-(4-amino-2-oxo-2H-pyrimidin-1-yl)-2-azido-3,4-bis-isobutyryloxy-tetrahydro-furan-2-ylmethyl ester]",patients who prematurely withdrew for safety reasons from treatment,[1]; among the 104 evaluable patients,43 patients
"NC(=O)c1ncn([C@@H]2O[C@H](CO)[C@@H](O)[C@H]2O)n1 [ribavirin, 1-((2R,3R,4S,5R)-3,4-Dihydroxy-5-hydroxymethyl-tetrahydro-furan-2-yl)-1H-[1,2,4]triazole-3-carboxylic acid amide]",patients with hemolytic anemia requiring dose reduction or discontinuation of ribavirin therapy,[2],10 to 20%
same,effect on serum levels of HCV-RNA,[3],does not lower serum levels of HCV-RNA
same,patients whose serum amino transferase levels are reduced to normal,[3],40%
same,patients who prematurely withdrew for safety reasons from treatment,"[1]; both, human, in vivo, 4 weeks",5 patients
